Assay results: US20070042963A1, “Therapeutic peptides” (Medarex, Inc., priority 2000, published 2007)

How the values were obtained:
[1] = system: Mab 64G12; experiment: ELISA binding of peptides to Mab 64G12; set-up: species or system mouse; conditions: biotin-SGSG-peptide on streptavidin plates, peptide 20 μM, antibody 1 μg/ml
Description: Binding of Peptides to Mab 64G12
The 11 mer (SEQ ID no. 2) and a number of modified versions of that polypeptide derived by deletion or substitution were tested for ability to bind Mab 64G12 by ELISA. […]. The peptides were biotinylated at the N-terminus with a spacer sequence SGSG between the peptide and the biotin, i.e. biotin-SGSG-peptide.
ELISA screening for ability to bind Mab 64G12 was carried out using Nunc Maxisorb plates coated with Streptavidin 5 μg/ml, 100 μl/well overnight at 37° C. The plates were then blocked with 200 μl/well of PBS containing 0.1% Tween 20, 1% sodium caseinate (CAST) for 1 hour at 20° C. Peptides were dissolved by adding 50 μl of DMSO and 0.6 ml of 40% acetonitrile to each tube. For peptide coating, 100 μl of PBS, 0.1% Tween 20 (PT) were added to each well, followed by 2 μl of each peptide solution (final peptide concentration 20 μM). After 30 mins, the monoclonal antibody was added at 1 μg/ml in PT for 1 hour at 20° C. The plates were washed and 100 μl/well of a 1/2000 dilution of horseradish peroxidase labeled goat anti-mouse IgG (H+L) in CAST plus 1% sheep serum (CASS) was added for 1 hour at 20° C. After washing, 100 μl of ABTS substrate was distributed to all wells. Absorbance was measured after 10 and 45 mins incubation on a plate reader using dual wavelength ([…]) to correct for background.

[2] = system: IFN-R on Daudi cells; experiment: Inhibition of Type 1-IFN binding to the IFN-R on Daudi cells: 125I-IFN-α2 binding in presence of Mab 64G12 with or without peptide; conditions: Mab 64G12 2 μg, 125I-labeled human IFN-α2 0.13 nM, 2 hours at 4° C.
Description: Inhibition of Type 1-IFN Binding to the IFN-R on Daudi Cells.
Cultures of exponentially growing Daudi cells (2 million cells/0.2 ml RPMI 1640 medium with 10% fetal calf serum) were treated with: Mab 64G12 (2 μg), alone or together with: (i) a soluble affinity purified recombinant polypeptide corresponding to amino acids 1 to 427 of the extracellular domain region sequence of the IFNAR1 chain as reported by Uze et al., 1990, Cell, 60, 224-234 (prepared as described in Benoit et al., 1993, J. Immunol., 150, 707-716 and Published International Application WO 92/18626 and purified first on a NI-NTA agarose column (Qiagen) and subsequently eluted with 300 mM imidazole. The eluted partially purified soluble IFNAR1 was then applied to a 5.0 ml 64G12 Mab sepharose column and eluted with 0.1 M glycine, pH 2.8. The eluted IFNAR1 was pure as determined by SDS-PAGE under denaturing conditions) or (ii) the peptide of SEQ ID no. 2 (the 11 mer). This was followed by the addition of ^125I-labeled human IFN-α2 (iodination as described by Mogensen et al., 1981, Int. J. Cancer, 28, 575-582; 90000 cpm, 0.13 nM) and incubation for 2 hours at 4° C. The cells were then washed 3 times with culture medium containing 1% fetal calf serum and the cell pellet counted in a gamma counter.

[3] = system: anti-IFN-R antibody (34F10); experiment: Effect of peptide on binding of non-neutralizing anti-IFN-R antibody 34F10 to the IFN-R; conditions: epitope distant from the ligand binding site

Row | Substance | binding to Mab 64G12 by ELISA [1] | IFN binding to the IFN-R in the presence of Mab 64G12 [2] | ability of antibody 34F10 to bind to the IFN-R [3]
1 | FSSLKLNVY (Modified peptide from Hu IFNAR1 receptor) [9 mer] | specifically bind | – | –
2 | KLNVYE (Modified peptide from Hu IFNAR1 receptor) [Peptide 7] | only background binding | – | –
3 | NFSSLKLNVYE (Modified peptide from Hu IFNAR1 receptor) [Peptide 12] | specifically bind | restored IFN-binding to a high degree | does not affect
